Key:
[1] = system: pLai RLuc reporter virus in MT-4 cells; test: HIV MT-4 serum shift antiviral reporter assay; type: cell-based; details: Human immunodeficiency virus 1, MT4, 72 h, read-out: RLUC CCM
Experimental: Example 48: HIV MT-4 Serum Shift Antiviral Reporter Assay
To quantify the amount of protein binding to human serum, compounds were serially diluted (1:3) in DMSO and acoustically transferred onto 384-well assay plates via a Labcyte ECHO robot. Each plate contained up to 8 test compounds, including negative and positive controls, (DMSO, 5 μM AZT respectively). Assay plates were prepared in duplicate, and tested in either CCM (cell culture media) or HS/CCM (human serum/cell culture media). MT-4 cells were first pre-infected with pLai RLuc reporter virus for 2 h at 37° C., then further diluted in either CCM (RPMI media, 10% FBS, 1% P/S) or HS/CCM (RPMI media, 10% FBS, 50% HS, 1% P/S), and subsequently added to each plate using a Biotek Micro Flow dispenser. After a 72-h incubation in a humidified and temperature controlled incubator (37° C.), Renilla Glo (Promega) was added to all assay plates and chemiluminescence read using an Envision plate-reader. EC50 values were defined as the compound concentration that causes a 50% decrease in luminescence signal, and were calculated using a sigmoidal dose-response model to generate curve fits. To determine the amount of protein binding, EC50 fold shifts (or EC50 shifts) were calculated by dividing EC50 (HS/CCM)/EC50 (CCM). […]

[2] = Cytotoxicity assay in MT-4 cells; type: cell-based; details: human, uninfected MT-4 cells, Cell Titer Glo
Experimental: (§1) Compounds were tested in a high-throughput 384-well assay format for their ability to inhibit the replication of HIV-1 (IIIB) in MT-4 cells. Compounds were serially diluted (1:3) in DMSO on 384-well polypropylene plates and further diluted 200-fold into complete RPMI media (10% FBS, 1% P/S) using the Biotek Micro Flow and Labcyte ECHO acoustic dispenser. Each plate contained up to 8 test compounds, with negative (No Drug Control) and 5 μM AZT positive controls. MT-4 cells were pre-infected with 10 μL of either RPMI (mock-infected) or a fresh 1:250 dilution of HIV-1 IIIB concentrated virus stock. Infected and uninfected MT-4 cells were further diluted in complete RPMI media and added to each plate using a Micro Flow dispenser. After 5 days incubation in a humidified and temperature controlled incubator (37° C.), Cell Titer Glo (Promega) was added to the assay plates and chemiluminescence read using an Envision plate-reader. EC50 values were defined as the compound concentration that causes a 50% decrease in luminescence signal, and were calculated using a sigmoidal dose-response model to generate curve fits. Cytotoxicity Assay in MT-4 Cells Assays were performed as above except uninfected MT-4 cells were added to each well containing test compound. In addition, 10 μM puromycin was added to the last column of each assay plate to assess a base level of cytotoxicity.

[3] = High throughput microsomal stability assay (human liver microsomes); type: in vitro ADME; details: for HLM stability: human liver microsomes, 1 uM compound, NADPH + UDPGA cofactors, 37 C
Experimental: Example 49: High Throughput Microsomal Stability Assay
Metabolic stability of compounds was assessed using Human, or Rat Liver Microsomal assays (Corning). In this assay, 10 nL compounds at concentration of 1 mM in 100% DMSO were dispensed into 384-well polypropylene plates using the Echo 550 acoustic liquid dispenser (Labcyte®). Each plate contained 384 wells with a single test compound in each well.
A solution of human (Corning® Gentest™ Human Mixed Pooled Microsomes), or rat (Corning® Gentest™ Rat [Sprague-Dawley] Pooled Liver Microsomes) liver microsomes at 2 mg/ml in 100 mM K2HPO4/KH2PO4 pH 7.4 with Alamethicin from Trichoderma viride (Sigma-Aldrich) 0.0225 mg/ml were incubated on ice for 15 minutes. 5 uL of this solution was added to individual wells following 15 minute incubation at room temperature; and supplemented with 5 uL NADPH Regenerating Solution of cofactors (Corning® Gentest™ UGT Reaction Mix) containing 100 mM K2HPO4/KH2PO4 pH 7.4, 2.6 mM NADP+, 6.6 mM glucose-6-phosphate, 6.6 mM MgCl2, 0.8 U/mL glucose-6-phosphate dehydrogenase, 0.1 mM Sodium Citrate, 6.8 mM uridine diphosphate-glucuronic acid. Final concentration of analyte compounds at the beginning of the reaction was 1 uM. The reactions were incubated at 37° C. and time points of 0, 5, 15, 30, 40, 50, 60, and 70 minutes were collected for further analysis. Background data were collected using reactions without analyte compounds.
Upon collection of the reaction time points, samples were quenched with 30 uL of a solution of 72% acetonitrile, 8% methanol, 0.1% formic acid, 19.9% water, and internal standard (IS). Reaction plates were span in a centrifuge at speed of 4,000 rcf for 30 minutes and 4° C., following a dilution of the 10 uL quenched reaction into 40 uL de-ionized water, yielding assay plates.
Assay plates were analyzed using solid-state extraction coupled with quadrupole time-of-flight mass spectrometer, using Agilent QToF 6530 RapidFire 360 system, with C4 type A solid state cartridges. Analysis was performed in either positive or negative ionization modes. Mobile phases contained 0.1% formic acid in water for loading analytes onto solid state extraction cartridges, and 0.1% formic acid in acetonitrile for elution into mass spectrometer in positive ionization mode, or 0.1% acetic acid in water for loading and 0.1% acetic acid in acetonitrile for extraction in negative ionization mode. Peak-area ratios of integrated counts for individual compounds to IS were plotted as semi-logarithmic chart of log vs time. Initial, linear portion of decay was fitted to a linear regression equation to derive half time of a compound decay.
Pharmacological parameters for an analyte compound metabolism were calculated using the following equations: […]
Where. Calculation of In Vitro Intrinsic Clearance
Concentration refers to the protein concentration (mg/mL) in the reaction.
Calculation of In Vivo Intrinsic Clearance
This scales the in vitro intrinsic clearance up to the value that would be predicted for the entire mass of liver tissue (but with no restriction by blood flow). The value depends upon the size of the liver (species-dependent) and the yield of microsomal protein as appropriate (assumed to be species-independent).
Calculation of Predicted Clearance
Hepatic clearance will depend upon the inter-relationship of intrinsic clearance and hepatic blood flow and can be predicted from in vitro data using a variety of approaches.
Calculation of Hepatic Extraction
This is simply the predicted clearance expressed as a proportion of hepatic blood flow. E=CL/QH*100%
Intrinsic clearance of the instant compounds, as well as for reference compounds A-F, were calculated following the procedure above.

[4] = system: HIV-1 (IIIB) in MT-4 cells; test: HIV MT-4 antiviral assay; type: cell-based; details: Human immunodeficiency virus 1, MT4, 120 h, 5 days, Cell Titer Glo
Experimental: Example 47: HIV MT-4 Antiviral and Cytotoxicity Assay
Antiviral Assay in MT-4 Cells
as §1, with “fits.” for “fits. Cytotoxicity Assay in MT-4 Cells Assays were performed as above except uninfected MT-4 cells were added to each well containing test compound. In addition, 10 μM puromycin was added to the last column of each assay plate to assess a base level of cytotoxicity.”

Compound: CO[C@H]1CC[C@@H](C)N2C[C@H]1n1cc(C(=O)NCc3ccc(F)cc3F)c(=O)c(O)c1C2=O [Example 42, (3R,6S,7R)—N-(2,4-difluorobenzyl)-12-hydroxy-6-methoxy-3-methyl-1,11-dioxo-1,4,5,6,7,11-hexahydro-3H-2,7-methanopyrido[1,2-a][1,4]diazonine-10-carboxamide]
- EC50 [1]: 0.61 nM
- CC50 at 5 days [2]: 50000 nM
- HLM stability [3]: 9.67 mL/min/kg
- EC50 [4]: 1.9 nM

Compound: CO[C@H]1C=C[C@H](C)N2C[C@H]1n1cc(C(=O)NCc3ccc(F)cc3F)c(=O)c(O)c1C2=O [Example 19, (3S,6S,7R)—N-(2,4-difluorobenzyl)-12-hydroxy-6-methoxy-3-methyl-1,11-dioxo-1,6,7,11-tetrahydro-3H-2,7-methanopyrido[1,2-a][1,4]diazonine-10-carboxamide]
- EC50 [1]: 0.38 nM
- CC50 at 5 days [2]: 20000 nM
- HLM stability [3]: 7.83 mL/min/kg
- EC50 [4]: 1.1 nM

Compound: CO[C@@H]1CC(F)(F)[C@H](C)N2C[C@H]1n1cc(C(=O)NCc3c(F)cc(F)cc3F)c(=O)c(O)c1C2=O (single isomer, unassigned) [Example 36]
- EC50 [1]: 0.33 nM
- CC50 at 5 days [2]: 27300 nM
- HLM stability [3]: 3.3 mL/min/kg
- EC50 [4]: 2.6 nM

Compound: CO[C@@H]1C=C[C@H](C)N2C[C@H]1n1cc(C(=O)NCc3ccc(F)cc3F)c(=O)c(O)c1C2=O [Example 7, (3S,6R,7R)—N-(2,4-difluorobenzyl)-12-hydroxy-6-methoxy-3-methyl-1,11-dioxo-1,6,7,11-tetrahydro-3H-2,7-methanopyrido[1,2-a][1,4]diazonine-10-carboxamide]
- EC50 [1]: 0.29 nM
- CC50 at 5 days [2]: 9910 nM
- MS Cl improvement [3]: 2.0 times relative to compound E
- HLM stability [3]: 3.33 mL/min/kg
- EC50 [4]: 1.2 nM

Compound: CO[C@H]1C[C@H](F)[C@H](C)N2C[C@H]1n1cc(C(=O)NCc3c(F)cc(F)cc3F)c(=O)c(O)c1C2=O [Example 40, (3S,4S,6S,7R)-4-fluoro-12-hydroxy-6-methoxy-3-methyl-1,11-dioxo-N-(2,4,6-trifluorobenzyl)-1,4,5,6,7,11-hexahydro-3H-2,7-methanopyrido[1,2-a][1,4]diazonine-10-carboxamide]
- EC50 [1]: 2.87 nM
- CC50 at 5 days [2]: 19600 nM
- HLM stability [3]: 4.67 mL/min/kg
- EC50 [4]: 1.1 nM

Compound: C[C@H]1CC[C@@](O)(CF)[C@H]2CN1C(=O)c1c(O)c(=O)c(C(=O)NCc3c(F)cc(F)cc3F)cn12 [Example 44, (3S,6S,7R)-6-(fluoromethyl)-6,12-dihydroxy-3-methyl-1,11-dioxo-N-(2,4,6-trifluorobenzyl)-1,4,5,6,7,11-hexahydro-3H-2,7-methanopyrido[1,2-a][1,4]diazonine-10-carboxamide]
- EC50 [1]: 1.9 nM
- CC50 at 5 days [2]: 44700 nM
- HLM stability [3]: 3.67 mL/min/kg
- EC50 [4]: 4 nM

Compound: CCO[C@H]1C=C[C@H](C)N2C[C@H]1n1cc(C(=O)NCc3c(F)cc(F)cc3F)c(=O)c(O)c1C2=O [Example 25, (3S,6S,7R)-6-ethoxy-12-hydroxy-3-methyl-1,11-dioxo-N-(2,4,6-trifluorobenzyl)-1,6,7,11-tetrahydro-3H-2,7-methanopyrido[1,2-a][1,4]diazonine-10-carboxamide]
- EC50 [1]: 0.82 nM
- CC50 at 5 days [2]: 43700 nM
- HLM stability [3]: 9.67 mL/min/kg
- EC50 [4]: 4.1 nM

Compound: [2H]C([2H])([2H])O[C@H]1CC[C@H](C)N2C[C@H]1n1cc(C(=O)NCc3ccc(F)cc3F)c(=O)c(O)c1C2=O [Example 34, (3S,6S,7R)—N-(2,4-difluorobenzyl)-12-hydroxy-6-(methoxy-d3)-3-methyl-1,11-dioxo-1,4,5,6,7,11-hexahydro-3H-2,7-methanopyrido[1,2-a][1,4]diazonine-10-carboxamide]
- EC50 [1]: 0.42 nM
- CC50 at 5 days [2]: 15100 nM
- HLM stability [3]: 4.17 mL/min/kg
- EC50 [4]: 0.9 nM

Compound: C[C@H]1C=C[C@](C)(O)[C@H]2CN1C(=O)c1c(O)c(=O)c(C(=O)NCc3ccc(F)cc3F)cn12 [Example 17, (1R,10S,13S)—N-[(2,4-difluorophenyl)methyl]-6,13-dihydroxy-10,13-dimethyl-5,8-dioxo-2,9-diazatricyclo[7.4.1.02,7]tetradeca-3,6,11-triene-4-carboxamide]
- EC50 [1]: 1.33 nM
- CC50 at 5 days [2]: 31400 nM
- HLM stability [3]: 2.83 mL/min/kg
- EC50 [4]: 3 nM

Compound: C[C@H]1C=C[C@@H](Cl)[C@H]2CN1C(=O)c1c(O)c(=O)c(C(=O)NCc3ccc(F)cc3F)cn12 [Example 13, (3S,6R,7R)-6-chloro-N-(2,4-difluorobenzyl)-12-hydroxy-3-methyl-1,11-dioxo-1,6,7,11-tetrahydro-3H-2,7-methanopyrido[1,2-a][1,4]diazonine-10-carboxamide]
- EC50 [1]: 0.55 nM
- CC50 at 5 days [2]: 15600 nM
- MS Cl improvement [3]: 1.5 times relative to compound E
- HLM stability [3]: 4.33 mL/min/kg
- EC50 [4]: 1.5 nM

— US12421235B2, “Bridged tricyclic carbamoylpyridone compounds and uses thereof” (Gilead Sciences, Inc., priority 2020, dated 2025)
